Laboratory results from patent US20260151399A1, “COMBINATIONS OF LSD1 INHIBITORS AND MENIN INHIBITORS FOR TREATING CANCER” (ORYZON GENOMICS, S.A., priority 2022, published 2026).

Legend:
Test in all cases: Single agent viability assay (96 hours, alamarBlue)
Type in all cases: cell-based
MOLM-13 = settings: for EC50: Homo sapiens, MOLM-13, mean, 96 hours incubation, N=2; for EC50 (range in words) / reduction of viability (compared to vehicle controls): MOLM-13, 96 hours
Experimental: (§1) Mycoplasma-free AML cell lines were maintained in RPMI 10% FBS medium at 37° C. in a humidified incubator with controlled 5% CO2 atmosphere. Cell freezing and thawing was performed following recommendation from ATCC. Genetic profiling of the cell lines used is available in Table 1.
(§2) Cells were seeded in 96-well plates at the optimal density to guarantee linear growth throughout the assay (8000 cells/well for MV(4;11), 4000 cells/well for MOLM-13 and OCI-AML3) in 50 μL of medium. Each experimental condition was tested in technical triplicates, including medium-only and vehicle-treated controls for background correction and normalization, respectively. After seeding, 50 μL of medium containing 9 serial dilutions of 2×-concentrated compound were added to the cells to obtain 100 μL of cells with 1×-concentrated compound at each dilution (DMSO %<0.5%). Cells were then incubated for 96 hours at 37° C. in a controlled 5% CO2 atmosphere, prior to evaluation of cell viability using alamarBlue™ cell viability reagent (ThermoFisher Scientific, Waltham, MA/USA). AlamarBlue™ is a cell viability indicator that uses the natural reducing power of living cells to convert resazurin to the fluorescent molecule resorufin. Briefly, alamarBlue™ stock solution was diluted 1:20 in the culture medium and after 3 hours incubation fluorescence was measured using a TECAN Infinity 2000 plate reader (Tecan Group Ltd., Mannedorf, CH; 540-570 nm excitation wavelength, 580-610 nm emission wavelength). For each condition, the average fluorescence was calculated from the 3 technical replicates; background correction was calculated from the fluorescence of medium-only controls. Data were analyzed using the GraphPad PRISM® version 9.0.1 (GraphPad Software, Inc., La Jolla, CA/USA) to calculate the best-fitting curves and the EC50 values.

MV(4;11) = settings: for EC50: Homo sapiens, MV4-11, mean, 96 hours incubation, N=2; for EC50 (range in words) / reduction of viability (compared to vehicle controls): MV(4;11), 96 hours
Experimental: as §1, §2

OCI-AML3 = settings: for EC50: Homo sapiens, OCI-AML-3, mean, 96 hours incubation, N=2
Experimental: as §1, §2

| Compound | EC50 (MOLM-13) | EC50 (range in words) (MOLM-13) | EC50 (OCI-AML3) | EC50 (range in words) (OCI-AML3; OCI-AML3, 96 hours) | reduction of viability (compared to vehicle controls) (MOLM-13) | EC50 (MV(4;11)) | EC50 (range in words) (MV(4;11)) | reduction of viability (compared to vehicle controls) (MV(4;11)) | reduction of viability (compared to vehicle controls) (OCI-AML3; OCI-AML3, 96 hours) |
| --- | --- | --- | --- | --- | --- | --- | --- | --- | --- |
| N#Cc1cc2cc(CN3CCC(Nc4ncnc5sc(CC(F)(F)F)cc45)CC3)ccc2[nH]1 [MI-136, 5-[[4-[[6-(2,2,2-trifluoroethyl)thieno[2,3-d]pyrimidin-4-yl]amino]piperidin-1-yl]methyl]-1H-indole-2-carbonitrile] | 1840 nM | less potent than SNDX-5613 |  |  | 100% | 593 nM | less potent than SNDX-5613 | 100% |  |
| CC(C)(C)OC(=O)N[C@@H]1CCCN(Cc2ccnc(C(=O)Nc3ccc(-c4cc5c(N6CCOCC6)ncnc5[nH]4)cc3)c2)C1 [Menin-MLL inhibitor 20, tert-butyl N-[(3R)-1-[[2-[[4-(4-morpholin-4-yl-7H-pyrrolo[2,3-d]pyrimidin-6-yl)phenyl]carbamoyl]pyridin-4-yl]methyl]piperidin-3-yl]carbamate] | 714 nM | less potent than SNDX-5613 |  |  | 100% | 750 nM | less potent than SNDX-5613 | 100% |  |
| CCN(C(=O)c1cc(F)ccc1Oc1cncnc1N1CC2(CCN(C[C@H]3CC[C@H](NS(=O)(=O)CC)CC3)CC2)C1)C(C)C [revumenib, 2-{[4-(7-{[trans-4-(ethanesulfonamido)cyclohexyl]methyl}-2,7-diazaspiro[3.5]nonan-2-yl)pyrimidin-5-yl]oxy}-N-ethyl-5-fluoro-N-(propan-2-yl)benzamide] | 32 nM | nanomolar range | 53.2 nM | nanomolar range | around 70% | 9.58 nM | nanomolar range | ~100% | around 50% |

Stronger by EC50 (MOLM-13), values ahead:

| EC50 (MOLM-13) | EC50 (range in words) (MOLM-13) | EC50 (OCI-AML3) | EC50 (range in words) (OCI-AML3; OCI-AML3, 96 hours) | Compound | reduction of viability (compared to vehicle controls) (MOLM-13) | EC50 (MV(4;11)) | EC50 (range in words) (MV(4;11)) | reduction of viability (compared to vehicle controls) (MV(4;11)) | reduction of viability (compared to vehicle controls) (OCI-AML3; OCI-AML3, 96 hours) |
| --- | --- | --- | --- | --- | --- | --- | --- | --- | --- |
| 3.55 nM |  | 1.4 nM |  | CN1CCN(C(=O)[C@H](CCCN[C@@H]2C[C@H]2c2ccc(F)cc2)NC(=O)c2ccc(-n3ccnn3)cc2)CC1 [bomedemstat, N-[(2S)-5-{[(1R,2S)-2-(4-fluorophenyl)cyclopropyl]amino}-1-(4-methylpiperazin-1-yl)-1-oxopentan-2-yl]-4-(1H-1,2,3-triazol-1-yl)benzamide] |  | 2.9 nM |  |  |  |
| 1.15 nM |  | 0.99 nM |  | COc1ccc(-c2c(-c3ccc(C#N)c(F)c3)nc(N3CCC(N)CC3)n(C)c2=O)cc1F [pulrodemstat, 4-[2-(4-aminopiperidin-1-yl)-5-(3-fluoro-4-methoxyphenyl)-1-methyl-6-oxo-1,6-dihydropyrimidin-4-yl]-2-fluorobenzonitrile] |  | 1.1 nM |  |  |  |
| 0.2 nM |  | 0.13 nM |  | N[C@H]1CC[C@H](N[C@@H]2C[C@H]2c2ccccc2)CC1 [iadademstat, (trans)-N1-((1R,2S)-2-phenylcyclopropyl)cyclohexane-1,4-diamine] |  | 0.16 nM |  |  |  |
